From ChEMBL document CHEMBL4808187, “Antiarrhythmic Hit to Lead Refinement in a Dish Using Patient-Derived iPSC Cardiomyocytes” (J Med Chem, 2021)
Calls of active or inactive are those of the source. The calls are words filed in the database; no cut-off is given here.

What was measured:
[1] = (§1) Antiarrhythmic activity in patient-derived hiPSC-CMs carrying LQT3 mutation assessed as cessation dose for cell beating; assay type: functional, Homo sapiens, iPSC-CM
[2] = Antiarrhythmic activity in patient-derived hiPSC-CMs carrying LQT3 mutation assessed as shortening dose of action potential; assay type: functional, Homo sapiens, iPSC-CM
[3] = Antiarrhythmic activity in patient-derived hiPSC-CMs carrying LQT3 mutation assessed as shortening of action potential duration; assay type: functional, Homo sapiens; details: ipsc-cm
[4] = Antiarrhythmic activity in hiPSC-CMs assessed as prolongation of action potential; set-up: species or system Homo sapiens, iPSC-CM
[5] = Antiarrhythmic activity in hiPSC-CMs assessed as cessation dose of cell beating; details: human, ipsc-cm
[6] = Antiarrhythmic activity in hiPSC-CMs assessed as dose for induction of early after depolarizations; details: human, ipsc-cm
[7] = Antiarrhythmic activity in patient-derived hiPSC-CMs carrying LQT3 mutation assessed as fold shortening of action potential duration relative to control; assay type: functional, Homo sapiens, iPSC-CM; further: test concentration or dose not given here
[8] = Inhibition of potassium channel (unknown origin) expressed in CHO cells assessed as reduction in potassium current by automated patch clamp method; assay type: cell-based
Homo sapiens = species on record: Homo sapiens; experiment: Selectivity index, ratio of IC50 for potassium channel (unknown origin) expressed in CHO cells assessed as reduction in potassium current to IC50 for sodium channel (unknown origin) expressed in HEK cells assessed as reduction in late inward sodium current
[9] = Inhibition of sodium channel (unknown origin) expressed in HEK cells assessed as reduction in peak sodium current by automated patch clamp method; assay type: cell-based; details: Homo sapiens, HEK293
[10] = Inhibition of sodium channel (unknown origin) expressed in HEK cells assessed as reduction in late inward sodium current by automated patch clamp method; assay type: cell-based; details: Homo sapiens, HEK293
[11] = Antiarrhythmic activity in hiPSC-CMs assessed as fold prolongation of action potential relative to control; details: human, ipsc-cm
iPSC-CM = experiment: as §1; assay type: functional; details: Homo sapiens
[12] = Homo sapiens, iPSC-CM, read-out: EC50

| IC50 [8] | IC50 [9] | IC50 [10] | SMILES | Activity [1] | Activity [2] | EC50 ([3]; read-out: EC50) | EC50 ([4]; ipsc-cm) | Activity [5] | Activity [6] | fold change (FC) [7] | EC50 [4, 12] | Ratio IC50 (Homo sapiens) | Activity [11] | Activity (iPSC-CM) | EC50 [3] | fold change (FC) [11] |
| --- | --- | --- | --- | --- | --- | --- | --- | --- | --- | --- | --- | --- | --- | --- | --- | --- |
|  |  |  | Cl.NC(COc1ccccc1OCC(F)(F)F)c1ccccc1 (centres undefined) | 66 µM | 22 µM | 900 nM | Not Active | 66 µM | Not Active | 1.409 |  |  |  |  |  |  |
|  |  |  | Cc1cccc(C)c1OCC(N)c1ccc2ccccc2c1.Cl (centres undefined) | 133 µM | 22 µM | 4730 nM | Not Active | Not Active | Not Active | 1.309 |  |  |  |  |  |  |
| 49.3 µM | 154 µM | 17.3 µM | Cc1cc(C)cc(OCC(C)N)c1.Cl (centres undefined) | 200 µM | 66 µM | 4500 nM |  | Not Active | Not Active | 1.232 | 7.7 µM | 2.84 |  |  |  |  |
|  |  |  | CCc1ccccc1OCC(N)c1ccccc1.Cl (centres undefined) | 22 µM | 7.4 µM | < 800 nM | Not Active | 66 µM | Not Active | 1.979 |  |  |  |  |  |  |
|  |  |  | CCCc1ccccc1OCC(N)c1ccccc1.Cl (centres undefined) | 22 µM | 2.5 µM | < 800 nM | Not Active | 22 µM | Not Active | 1.321 |  |  |  |  |  |  |
|  |  |  | COCCNC(COc1cc(C(F)(F)F)cc(C(F)(F)F)c1)c1ccccc1.Cl (centres undefined) | 66 µM | 66 µM | 6590 nM |  | Not Active | Not Active | 1.636 |  |  | Not Active |  |  |  |
|  |  |  | COc1ccccc1OCC(N)c1ccccc1.Cl (centres undefined) | 133 µM | 0.8 µM | < 800 nM |  | 22 µM | 7.4 µM | 1.482 | 32.2 µM |  |  |  |  |  |
|  |  |  | Cc1cccc(C)c1OCC(NC(=O)c1ccccc1)c1ccccc1 (centres undefined) |  | 66 µM | 800 nM |  | Not Active | Not Active | 1.64 |  |  | Not Active | inactive |  |  |
|  |  |  | CCCCNC(C)COc1c(C)cccc1C.Cl (centres undefined) | 66 µM | 2.5 µM | < 800 nM |  | 133 µM | 66 µM | 1.18 | 7.8 µM |  |  |  |  |  |
|  |  |  | Cc1cccc(OCC(N)c2ccccc2)c1.Cl (centres undefined) | 66 µM | 22 µM | < 800 nM | Not Active | 133 µM | Not Active | 1.41 |  |  |  |  |  |  |
|  |  |  | Cc1ccc(OCC(N)C2CC2)cc1C.Cl (centres undefined) | 66 µM | 22 µM |  |  | 66 µM | Not Active | 1.18 |  |  | Not Active |  | Not Active |  |
|  |  |  | Cc1ccc(OCC(N)c2ccccc2)c(C)c1.Cl (centres undefined) | 66 µM | 7.4 µM | 500 nM | Not Active | 66 µM | Not Active | 1.192 |  |  |  |  |  |  |
|  |  |  | CCCNC(C)COc1c(C)cccc1C.Cl (centres undefined) | 200 µM | 2.5 µM |  |  | 200 µM | 66 µM | 1.199 | 10.4 µM |  |  |  | Not Active |  |
|  |  |  | Cc1cc(C)cc(OCC(NCCO)c2ccccc2)c1.Cl (centres undefined) | 22 µM | 22 µM |  |  | 66 µM | Not Active | 1.5 |  |  | Not Active |  | Not Active |  |
|  |  |  | Cc1cccc(C)c1OCC(N)C1CCCCC1.Cl (centres undefined) | 66 µM | 0.8 µM | < 800 nM | Not Active | 66 µM | Not Active | 1.136 |  |  |  |  |  |  |
|  |  |  | Cc1cccc(C)c1OCC(C)NCc1ccccc1.Cl (centres undefined) | 133 µM | 22 µM |  |  | 200 µM | Not Active | 1.264 | 5.7 µM |  |  |  | Not Active |  |
|  |  |  | Cl.NC(COc1ccc2ccccc2c1)c1ccccc1 (centres undefined) | 133 µM | 2.5 µM | 8700 nM | Not Active | Not Active | Not Active | 1.459 |  |  |  |  |  |  |
|  |  |  | CC(N)COc1cccc(C(F)(F)F)c1.Cl (centres undefined) | 200 µM | 133 µM | 31300 nM | Not Active | 200 µM | Not Active | 1.661 |  |  |  |  |  |  |

| IC50 [8] | IC50 [9] | IC50 [10] | SMILES | Activity [1] | Activity [2] | EC50 ([3]; read-out: EC50) | EC50 ([4]; ipsc-cm) | Activity [5] | Activity [6] | fold change (FC) [7] | EC50 [4, 12] | Ratio IC50 (Homo sapiens) | Activity [11] | Activity (iPSC-CM) | EC50 [3] | fold change (FC) [11] |
| --- | --- | --- | --- | --- | --- | --- | --- | --- | --- | --- | --- | --- | --- | --- | --- | --- |
|  |  |  | CCc1ccccc1OCC(C)N.Cl (centres undefined) |  | 22 µM | 6000 nM |  | Not Active | Not Active | 1.118 | 23.5 µM |  |  | inactive |  |  |
|  |  |  | Cl.NC(COc1cccc(C(F)(F)F)c1)c1ccccc1 (centres undefined) | 66 µM | 22 µM | 4100 nM | Not Active | 66 µM | Not Active | 1.539 |  |  |  |  |  |  |
|  |  |  | Cl.NC(COc1cccc2ccccc12)c1ccccc1 (centres undefined) | 66 µM | 66 µM | 820 nM | Not Active | Not Active | Not Active | 1.316 |  |  |  |  |  |  |
|  |  |  | COCCNC(C)COc1c(C)cccc1C.Cl (centres undefined) |  | 7.4 µM | 2300 nM |  | Not Active | 66 µM |  | 32 µM |  |  | inactive |  |  |
|  |  |  | CC(N)COc1cc(C(F)(F)F)cc(C(F)(F)F)c1.Cl (centres undefined) | 66 µM | 7.4 µM | 900 nM | Not Active | 133 µM | Not Active | 1.2 |  |  |  |  |  |  |
|  |  |  | CCCc1ccccc1OCC(C)N.Cl (centres undefined) | 133 µM | 7.4 µM | 900 nM |  | 200 µM | Not Active | 1.192 | 7.8 µM |  |  |  |  |  |
|  |  |  | Cc1cccc(OCC(C)N)c1.Cl (centres undefined) |  | 200 µM |  |  | Not Active | 66 µM | 1.418 | 27.3 µM |  |  | inactive | Not Active |  |
|  |  |  | Cc1ccccc1OCC(C)N.Cl (centres undefined) |  | 22 µM | < 800 nM |  | Not Active | 200 µM | 1.284 | 83.9 µM |  |  | inactive |  |  |
|  |  |  | CNC(COc1cccc(C)c1C)c1ccccc1.Cl (centres undefined) | 66 µM | 22 µM |  |  | 133 µM | Not Active | 1.29 |  |  | Not Active |  | Not Active |  |
|  |  |  | CC(=O)NC(COc1c(C)cccc1C)c1ccccc1 (centres undefined) | 66 µM | 22 µM | 800 nM |  | Not Active | Not Active | 1.62 |  |  | Not Active |  |  |  |
|  |  |  | Cc1cccc(C)c1OCC(N)c1ccccc1.Cl (centres undefined) |  |  |  |  |  |  |  |  |  |  |  |  | 4 |
|  |  |  | Cc1ccc(OCC(N)c2ccccc2)cc1C.Cl (centres undefined) | 66 µM | 22 µM |  | Not Active | 66 µM | Not Active | 1.37 |  |  |  |  | Not Active |  |
| 44.1 µM | 124 µM | 36 µM | CNC(C)COc1c(C)cccc1C.Cl (centres undefined) | 133 µM |  | 1500 nM |  | 66 µM | 22 µM |  | 7.8 µM | 1.2 |  |  |  |  |
|  |  |  | CC(N)COc1ccccc1C(F)(F)F.Cl (centres undefined) |  | 133 µM |  | Not Active | Not Active | Not Active | 1.375 |  |  |  | inactive | Not Active |  |
|  |  |  | Cl.NC(COc1ccccc1OC(F)(F)F)c1ccccc1 (centres undefined) | 66 µM | 22 µM | 2600 nM | Not Active | 66 µM | Not Active | 1.513 |  |  |  |  |  |  |
|  |  |  | CCCCNC(COc1cccc(C)c1C)c1ccccc1.Cl (centres undefined) | 200 µM | 133 µM | 20200 nM |  | 133 µM | Not Active | 1.423 |  |  | Not Active |  |  |  |
|  |  |  | Cc1ccc(OCC(N)C2CC2)c(C)c1.Cl (centres undefined) | 200 µM | 66 µM | 1360 nM |  | 200 µM | 66 µM | 1.119 |  |  |  |  |  | 2.12 |
